Source: patent US8084625B2, “Crosslinking agent, crosslinking method, method of controlling gene expression, and method of examining gene function” (Wako Pure Chemical Industries, Ltd., priority 2005, dated 2011)
Entries after “also recorded” stand apart in the source; their conditions may differ.

Columns and labels:
EGFP [1] = test: Effectiveness versus bis-Bhc-CH3 and Bhc-diazo, EGFP/DsRed cotransfection in Hela cells (Example 7); type: cell-based
Protocol: (§1) As shown in the following Table 5, 0.2 μl of the crosslinking agent solution and 0.20 μl of the siRNA solution were mixed together, and the mixture thus obtained was still held for 8 hours under light shielding conditions. Subsequently, Nos. 2, 4, and 6 were irradiated with UV (350 nm) for 3 minutes using Rayonet Photochemical Reactor manufactured by Southern N. E. Ultraviolet Co.

EGFP [2] = test: RNAi-effect inhibitory ability, EGFP/DsRed cotransfection in Hela cells (Example 5); type: cell-based; conditions: crosslinking agent solution 4 μM reacted with siRNA 8 hours, no UV irradiation, 48 hours culture
Protocol: (§2) (1) Reagents • Hela cells (American Type Culture Collection (ATCC, Rockville, Md.)) • DMEM culture medium (Dullbecco's modified Eagle culture medium, Nissui 2, manufactured by Nissui Pharmaceutical Co., Ltd.) • Opti-MEM culture medium (manufactured by GIBCO) • Trypsin solution (0.38 mg/ml EDTA aqueous solution containing 2.5 mg of trypsin, manufactured by GIBCO) • LipofectAMINE 2000 (manufactured by Invitrogen) • pEGFP-N1 vector solution
(§3) Hela cells (500 μl of the DMEM culture medium containing Hela cells and 10% of FBS) were spread on a 24-hole plate so as to obtain 3×10^4 cells/well. After 24 hours passed, the old culture medium was removed, and Hela cells were then washed with a PBS(−) solution. Subsequently, the PBS(−) solution was removed, and 500 μl of the DMEM culture medium containing 10% of FBS was added per one well. This was used as a transfection Hela cell plate.
as §1, with “2,” for “5,”, “Co. […]” for “Co.”

EGFP [3] = test: Study in cell: local UV irradiation of transfected Hela cells, EGFP/DsRed (Example 8); type: cell-based
Protocol: as §3, with “of” for “of the”, “DMEM” for “DMEM culture medium”, “5×10^3” for “3×10^4”, “were” for “were then”
(§4) To 9.2 μl of the Opti-MEM culture medium, 0.8 μl of LipofectAMINE 2000 was added, and the culture medium thus processed was still held for 10 minutes.
Next, the above culture medium and the transfecting sample obtained by the above ii) were mixed together, and this mixture was still held for 20 minutes.
(§5) The mixture thus obtained was added to the transfection Hela cell plate prepared by the above (2) and was then cultured at 37° C. for 6 hours using a CO2 incubator (Automatic CO2 Incubators 5400, manufactured by NAPCO).
(§6) After the culture was performed, the culture medium was removed, and Hela cells were washed with a PBS(−) solution. Subsequently, the PBS(−) solution was removed, and 500 μl of the Opti-MEM culture medium was added per one well. […]
In addition, the observation results of the fluorescence images of EGFP and DsRed obtained by using the compound 3 of the present invention are shown in FIG. 6.

Lamin B1 = test: Light irradiation control of endogenous gene, Western blotting of Lamin B1 protein in Hela cells (Example 10); type: cell-based
Protocol: as §2, with “Md.)” for “Md.))”, “siRNA” for “pEGFP-N1 vector”
as §3, with “of” for “of the”, “DMEM” for “DMEM culture medium”, “1×10^3” for “3×10^4”
Mixing between 4.6 μl of the crosslinking agent solution and 0.46 μl of the siRNA solution was performed, and the mixture thus obtained was still held for 8 hours under light shielding conditions.
After the culture was performed, by a Western blotting method, the amounts of a Lamin B1 protein of the individual samples were quantitatively measured. […]
In addition, from the results of the Western blotting, the amounts of the Lamin B1 protein of the samples were quantitatively measured. […]

EGFP [4] = test: Influence of light irradiation and compound on RNAi, control siRNA (targeting luciferase), EGFP/DsRed in Hela cells (Example 9); type: cell-based
Protocol: The expression level obtained by transfection of siRNA which reacted with the compound of the present invention was low as that obtained by transfection of only EGFP. In order to investigate this reason, it was confirmed whether the transfection efficiency was degraded by the compound of the present invention or by the transfection itself of siRNA.
As shown in the following Table 8, 0.2 μl of the crosslinking agent solution and 0.20 μl of the siRNA solution or 0.20 μl of the control siRNA solution were mixed together, and the mixture thus obtained was still held for 8 hours under light shielding conditions.
as §4
Next, the above culture medium and the transfecting sample obtained by the above ii) or the control sample were mixed together, and this mixture was still held for 20 minutes.
as §5, §6

EGFP [5] = conditions: compound 3 4 μM
Protocol: The crosslinking agent solution in an amount of 0.2 μl and the siRNA solution in an amount of 0.20 μl were mixed together, and the mixture thus formed was still held for 0, 1, 2, 4, 8, or 24 hours under light shielding conditions.
After the culture was performed, transmission images of cells, and fluorescent images of EGFP and DsRed were observed.
By using a Meta Morph Analysis software (manufactured by Meta Imaging Software), the total fluorescent areas of the respective EGFP and DsRed were measured, and the ratio of EGFP/DsRed was obtained.

[6] = Hela cells, regardless before and after UV irradiation, bis-Bhc-CH3 4 μM, Bhc-diazo 8 μM

`Cc1cc(=O)oc2cc(OC(=O)CC(C)(C)CC(=O)OCCOC(=O)CC(C)(C)CC(=O)Oc3cc4oc(=O)cc(C)c4cc3Br)c(Br)cc12` [bis-Bhc-CH3, 3,3-dimethylglutaric acid (6-bromo-4-methyl-2-oxo-2H-chromen)-7-yl 2-[4-(6-bromo-4-methyl-2-oxo-2H-chromen-7-yloxycarbonyl)-3,3-dimethylbutyryloxy]ethyl ester] was tested, and the “binding to / crosslinking of siRNA” value (EGFP [1]) was “could not be bound to siRNA” and the “inhibition of the siRNA effect (relative EGFP expression level)” value (EGFP [1]; [6]) was “the siRNA effect could be hardlyinhibited”.

With `[N-]=[N+]=Cc1cc(=O)oc2cc(O)c(Br)cc12` [Bhc-diazo, 6-bromo-7-hydroxy-4-methyldiazocumarine] the “binding to / crosslinking of siRNA” value (EGFP [1]) was “could not crosslink two chains of siRNA” and the “inhibition of the siRNA effect (relative EGFP expression level)” value (EGFP [1]; [6]) was “the siRNA effect could be hardlyinhibited”.

In the case of `CC(C)(CC(=O)OCCOC(=O)CC(C)(C)CC(=O)Oc1cc2oc(=O)cc(C=[N+]=[N-])c2cc1Br)CC(=O)Oc1cc2oc(=O)cc(C=[N+]=[N-])c2cc1Br` [compound 3 of the present invention, 3,3-dimethylglutaric acid (6-bromo-4-diazomethyl-2-oxo-2H-chromen)-7-yl 2-[4-(6-bromo-4-diazomethyl-2-oxo-2H-chromen-7-yloxycarbonyl)-3,3-dimethylbutyryloxy]ethyl ester], the “inhibition of the RNAi effect of siRNA (relative EGFP expression level)” value (EGFP [2]) is reported as “superior effect of inhibiting the RNAi effect; also recorded: most superior effect”, the “RNAi effect of siRNA at a portion not irradiated with UV” value (EGFP [3]; Hela cells transfected with siRNA crosslinked by compound 3) is reported as “the RNAi effect of siRNA was inhibited” and the “RNAi effect of siRNA at a portion irradiated with UV” value (EGFP [3]; Hela cells, UV (335 to 385 nm) for 1 second at the center of the well, 42 hours culture) is reported as “the RNAi effect of siRNA was restored”. The “restoration of the inhibited RNAi effect on Lamin B1 expression by UV irradiation” value (Lamin B1; UV irradiation as in Example 8) was “could be restored”, the “inhibition of the RNAi effect of siRNA on Lamin B1 expression” value (Lamin B1; compound 3 bound to siRNA, no UV) was “the RNAi effect of siRNA could be inhibited” and the “EGFP expression rate with control siRNA crosslinked by the compound versus control siRNA only” value (EGFP [4]) was “approximately equivalent to each other”. The “crosslinking of siRNA when the reaction time is short” value (EGFP [5]; reaction time short (0, 1, 2, 4 hours tested)) was “could not be sufficiently crosslinked”, the “reaction time at which the reaction between crosslinking agent and siRNA reached a plateau” value (EGFP [5]; reaction times 0-24 hours, no significant difference between 8 and 24 hours) was “approximately 8 hours” and the “inhibition of the siRNA effect (relative EGFP expression level)” value (EGFP [1]; Hela cells, 4 μM, UV irradiation not performed) was “could inhibit the siRNA effect”. The “effect of UV irradiation on the inhibition of the siRNA effect” value (EGFP [1]; Hela cells, UV (350 nm) for 3 minutes) was “the inhibition was broken down by UV irradiation”.

In the case of `[N-]=[N+]=Cc1cc(=O)oc2cc(OC(=O)CCCC(=O)OCCOC(=O)CCCC(=O)Oc3cc4oc(=O)cc(C=[N+]=[N-])c4cc3Br)c(Br)cc12` [compound 2 of the present invention, Glutaric acid (6-bromo-4-diazomethyl-2-oxo-2H-chromen)-7-yl 2-[4-(6-bromo-4-diazomethyl-2-oxo-2H-chromen-7-yloxycarbonyl)butyryloxy]ethyl ester], the “inhibition of the RNAi effect of siRNA (relative EGFP expression level)” value (EGFP [2]) is reported as “superior effect of inhibiting the RNAi effect”.
